Patent US7745492B2, “Carboxamido opioid compounds” (Janssen Pharmaceutical, priority 2004, dated 2010)

Tests used:
[1] = target: T1, mu opioid receptor (Rattus norvegicus, UniProt P33535); test: Rat brain mu opioid receptor binding assay ([3H]DAMGO); details: rat forebrain membranes, 25° C.
T1 construct: from tissue; host or cells: rat forebrain membrane (particulate) preparation
Experimental: (§1) Rat Brain Mu and Delta Opioid Receptor Binding Assay
(§2) Male, Wistar rats (150-250 g, VAF, Charles River, Kingston, N.Y.) were killed by cervical dislocation and their brains removed and placed immediately in ice cold Tris HCl buffer (50 mM, pH 7.4). The forebrains were separated from the remainder of the brain by a coronal transection, beginning dorsally at the colliculi and passing ventrally through the midbrain-pontine junction. After dissection, the forebrains were homogenized in Tris buffer in a Teflon®-glass homogenizer. The homogenate was diluted to a concentration of 1 g of forebrain tissue per 100 mL Tris buffer and centrifuged at 39,000×G for 10 min. The pellet was resuspended in the same volume of Tris buffer with several brief pulses from a Polytron homogenizer. This particulate preparation was used for the opioid receptor binding assays. Following incubation with the mu opioid selective peptide ligand [^3H]DAMGO or the delta opioid selective ligand [^3H]DPDPE at 25° C., the tube contents were filtered through Whatman GF/B filter sheets on a Brandel cell harvester. The tubes and filters were rinsed three times with 4 mL of 10 mM HEPES (pH 7.4) and the radioactivity associated with the filter circles determined using Formula 989 scintillation fluid (New England Nuclear, Boston, Mass.) in a scintillation counter.
(§3) The data were used to calculate a Ki value, using GraphPad Prism.

[2] = target: T2, delta opioid receptor (Rattus norvegicus, UniProt P33533); test: Rat brain delta opioid receptor binding assay ([3H]DPDPE); details: rat forebrain membranes, 25° C.
T2 construct: from tissue; host or cells: rat forebrain membrane (particulate) preparation
T2 sequence (P33533 whole entry): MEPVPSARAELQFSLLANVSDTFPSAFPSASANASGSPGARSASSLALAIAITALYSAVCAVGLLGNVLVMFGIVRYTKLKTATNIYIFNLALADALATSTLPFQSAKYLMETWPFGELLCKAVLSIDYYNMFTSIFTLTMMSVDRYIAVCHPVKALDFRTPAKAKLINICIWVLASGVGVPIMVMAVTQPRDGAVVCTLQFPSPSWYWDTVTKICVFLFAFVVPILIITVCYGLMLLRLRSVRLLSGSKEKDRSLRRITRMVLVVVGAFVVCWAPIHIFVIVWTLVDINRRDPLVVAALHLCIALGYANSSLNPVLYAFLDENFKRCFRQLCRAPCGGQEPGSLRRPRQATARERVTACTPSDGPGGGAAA
Experimental: as §1
as §2, with “Following incubation with the mu opioid selective peptide ligand [^3H]DAMGO or the delta opioid selective ligand [^3H]DPDPE at 25° C., the tube contents were filtered through Whatman GF/B filter sheets on a Brandel cell harvester.” left out
as §3

[3] = system: spinal nerve ligated rats; test: Investigation of tolerance development to antiallodynic effect; assay type: in vivo, rat; details: dosing for five days, evaluated days one and five
Experimental: Investigation of Tolerance Development
The development of tolerance to the analgesic effect of mu opioid compounds is well known. The development of tolerance to the antiallodynic effect of the Compound 3 was investigated by administering the compound to spinal nerve ligated rats for five days. The antiallodynic effect of the compound was evaluated on days one and five.

[4] = Metabolic stability in rat liver microsomes; assay type: in vitro ADME; details: 10 min incubation
Experimental: The metabolic stability of Compound 3 was investigated using several approaches. The compound was incubated with liver microsomes from mouse, rat, dog and human and the percent of compound remaining after ten min quantified. The compound was metabolically robust in all species tested.

[5] = target: recombinant human P450 3A4 (Homo sapiens, UniProt P08684); test: Recombinant human P450 isoform inhibition, 3A4; assay type: in vitro ADME
Chain of recombinant human P450 3A4 (P08684 whole entry, canonical isoform): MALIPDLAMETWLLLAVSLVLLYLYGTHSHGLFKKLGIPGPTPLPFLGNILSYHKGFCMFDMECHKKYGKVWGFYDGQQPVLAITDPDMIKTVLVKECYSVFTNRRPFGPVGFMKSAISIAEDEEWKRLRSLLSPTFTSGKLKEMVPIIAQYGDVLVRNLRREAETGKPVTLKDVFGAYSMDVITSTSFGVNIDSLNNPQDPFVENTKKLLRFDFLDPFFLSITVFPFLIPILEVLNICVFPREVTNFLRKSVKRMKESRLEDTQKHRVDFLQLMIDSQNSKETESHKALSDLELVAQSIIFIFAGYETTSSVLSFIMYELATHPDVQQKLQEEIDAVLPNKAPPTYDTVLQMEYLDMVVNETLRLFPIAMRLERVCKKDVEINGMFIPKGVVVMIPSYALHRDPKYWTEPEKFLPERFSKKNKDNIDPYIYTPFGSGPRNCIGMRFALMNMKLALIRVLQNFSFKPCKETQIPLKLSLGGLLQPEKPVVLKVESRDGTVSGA
Experimental: (§4) In a study using recombinant human P450 isoforms, the compound was only a weak inhibitor (IC50>10 μM) of all isoforms tested, 3A4, 2D6, 2C9, 2C19, and 1A2.

[6] = target: recombinant human P450 2C9 (Homo sapiens, UniProt P11712); test: Recombinant human P450 isoform inhibition, 2C9; assay type: in vitro ADME
Chain of recombinant human P450 2C9 (P11712 whole entry, canonical isoform): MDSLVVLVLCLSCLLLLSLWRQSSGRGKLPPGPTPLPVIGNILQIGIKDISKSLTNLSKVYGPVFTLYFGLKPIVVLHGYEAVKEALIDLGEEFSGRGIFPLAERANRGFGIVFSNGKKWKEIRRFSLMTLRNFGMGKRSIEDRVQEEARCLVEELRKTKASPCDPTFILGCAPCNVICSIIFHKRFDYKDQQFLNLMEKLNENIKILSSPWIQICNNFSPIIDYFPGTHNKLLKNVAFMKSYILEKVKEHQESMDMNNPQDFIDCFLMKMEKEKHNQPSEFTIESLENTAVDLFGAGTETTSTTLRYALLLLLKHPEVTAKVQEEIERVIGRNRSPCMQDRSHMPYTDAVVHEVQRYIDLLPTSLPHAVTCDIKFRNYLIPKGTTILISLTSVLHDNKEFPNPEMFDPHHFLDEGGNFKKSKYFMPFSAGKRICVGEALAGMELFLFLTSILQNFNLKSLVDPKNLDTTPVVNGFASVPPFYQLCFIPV
Experimental: as §4

[7] = target: recombinant human P450 2C19 (Homo sapiens, UniProt P33261); test: Recombinant human P450 isoform inhibition, 2C19; assay type: in vitro ADME
Chain of recombinant human P450 2C19 (P33261 whole entry, canonical isoform): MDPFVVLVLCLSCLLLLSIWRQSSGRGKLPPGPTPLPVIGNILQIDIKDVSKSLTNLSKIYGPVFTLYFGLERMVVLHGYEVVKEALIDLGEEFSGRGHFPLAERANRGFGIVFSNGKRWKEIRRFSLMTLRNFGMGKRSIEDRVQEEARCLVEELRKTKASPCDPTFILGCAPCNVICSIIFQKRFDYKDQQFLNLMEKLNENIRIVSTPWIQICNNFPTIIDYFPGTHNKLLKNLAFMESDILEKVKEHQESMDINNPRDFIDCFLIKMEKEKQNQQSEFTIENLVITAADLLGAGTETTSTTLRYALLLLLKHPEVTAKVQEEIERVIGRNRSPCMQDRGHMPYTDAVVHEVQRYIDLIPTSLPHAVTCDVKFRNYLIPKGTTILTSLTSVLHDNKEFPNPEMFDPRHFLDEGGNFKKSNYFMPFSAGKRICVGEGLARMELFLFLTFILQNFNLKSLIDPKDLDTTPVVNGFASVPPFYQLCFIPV
Experimental: as §4

[8] = target: T3, recombinant human P450 1A2 (Homo sapiens, UniProt P05177); test: Recombinant human P450 isoform inhibition, 1A2; assay type: in vitro ADME
T3 sequence (P05177 1-516): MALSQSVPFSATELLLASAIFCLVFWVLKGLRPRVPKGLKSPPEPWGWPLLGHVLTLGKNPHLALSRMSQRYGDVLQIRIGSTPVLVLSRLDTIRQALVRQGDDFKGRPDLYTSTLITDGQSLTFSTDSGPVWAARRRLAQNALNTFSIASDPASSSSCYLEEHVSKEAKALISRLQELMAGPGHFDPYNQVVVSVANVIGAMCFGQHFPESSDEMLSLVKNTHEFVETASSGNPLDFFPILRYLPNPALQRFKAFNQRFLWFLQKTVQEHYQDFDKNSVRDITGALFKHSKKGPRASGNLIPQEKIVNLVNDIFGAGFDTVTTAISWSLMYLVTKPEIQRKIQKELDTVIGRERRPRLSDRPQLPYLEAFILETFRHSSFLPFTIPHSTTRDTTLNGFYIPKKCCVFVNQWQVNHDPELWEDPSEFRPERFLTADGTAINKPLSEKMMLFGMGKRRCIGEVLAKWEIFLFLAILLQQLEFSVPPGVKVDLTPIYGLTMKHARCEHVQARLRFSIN
Experimental: as §4

[9] = Glucuronidation in human liver microsomes; assay type: in vitro ADME; details: in vitro

T1 sequence (P33535 whole entry): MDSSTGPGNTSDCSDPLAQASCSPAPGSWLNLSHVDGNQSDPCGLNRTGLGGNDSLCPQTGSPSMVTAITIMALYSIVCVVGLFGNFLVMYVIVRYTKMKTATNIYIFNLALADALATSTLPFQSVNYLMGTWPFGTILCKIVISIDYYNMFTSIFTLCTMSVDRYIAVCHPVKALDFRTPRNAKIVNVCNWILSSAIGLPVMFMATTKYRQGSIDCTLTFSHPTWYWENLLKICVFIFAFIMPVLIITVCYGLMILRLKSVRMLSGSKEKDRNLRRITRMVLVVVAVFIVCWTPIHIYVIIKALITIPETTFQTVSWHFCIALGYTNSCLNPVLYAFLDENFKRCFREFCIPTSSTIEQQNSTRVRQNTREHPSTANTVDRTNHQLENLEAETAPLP

**Q.** For `CN(C)C[C@H]1CCCC[C@]1(O)c1cccc(C(N)=O)c1` (single isomer, unassigned) [Cpd 3], which Ki [1] is on record?
**A.** 0.0155 µM

**Q.** And the Ki [2]?
**A.** 3.14 µM

**Q.** What about the “Development of tolerance to the antiallodynic effect” value [3] of the same molecule?
**A.** did not diminish the antiallodynic effect

**Q.** And the “% remaining after 10 min” value [4]?
**A.** 94.5%

**Q.** And the IC50 [5]?
**A.** > 10 µM

**Q.** What about the IC50 [6] of the same molecule?
**A.** > 10 µM

**Q.** What about the IC50 [7] of the same molecule?
**A.** > 10 µM

**Q.** And the IC50 [8]?
**A.** > 10 µM

**Q.** And the Glucuronidation [9]?
**A.** no glucuronidation of the compound was detected
